In patent US11629138B2, “Microbiocidal picolinamide derivatives” (Syngenta Participations AG, priority 2017, dated 2023):

How the values were obtained:
[1] = system: Glomerella lagenarium (Colletotrichum lagenarium); assay: Glomerella lagenarium (Colletotrichum lagenarium) / liquid culture (anthracnose); type: cell-based; details: Colletotrichum orbiculare; 200 ppm in the formulation; PDB broth, 24° C., photometric, 3 to 4 days after application; vs untreated control; read-out: disease control (inhibition of growth)
Method: Glomerella lagenarium (Colletotrichum lagenarium)/Liquid Culture (Anthracnose) Conidia of the fungus from cryogenic storage are directly mixed into nutrient broth (PDB potato dextrose broth). After placing a (DMSO) solution of test compound into a microtiter plate (96-well format), the nutrient broth containing the fungal spores is added. The test plates are incubated at 24° C. and the inhibition of growth is measured photometrically 3 to 4 days after application.

[2] = system: Botryotinia fuckeliana (Botrytis cinerea); assay: Botryotinia fuckeliana (Botrytis cinerea) liquid culture (gray mould); type: cell-based; details: 200 ppm in the formulation, Vogels broth, 24° C., photometric, 3-4 days after application, vs untreated control, read-out: disease control (inhibition of growth)
Method: Botryotinia fuckeliana (Botrytis cinerea) Liquid Culture (Gray Mould) Conidia of the fungus from cryogenic storage are directly mixed into nutrient broth (Vogels broth). After placing a (DMSO) solution of test compound into a microtiter plate (96-well format), the nutrient broth containing the fungal spores is added. The test plates are incubated at 24° C. and the inhibition of growth is determined photometrically 3-4 days after application.

[3] = system: Mycosphaerella arachidis (Cercospora arachidicola); assay: Mycosphaerella arachidis (Cercospora arachidicola) / liquid culture (early leaf spot); type: cell-based; details: 200 ppm in the formulation, PDB broth, 24° C., photometric, 4-5 days after application, vs untreated control, read-out: disease control (inhibition of growth)
Method: Mycosphaerella arachidis (Cercospora arachidicola)/Liquid Culture (Early Leaf Soot) Conidia of the fungus from cryogenic storage are directly mixed into nutrient broth (PDB potato dextrose broth). After placing a (DMSO) solution of test compound into a microtiter plate (96-well format), the nutrient broth containing the fungal spores is added. The test plates are incubated at 24° C. and the inhibition of growth is determined photometrically 4-5 days after application.

[4] = system: Puccinia recondita f. so. tritici; assay: Puccinia recondita f. sp. tritici / wheat / leaf disc preventative (brown rust); type: in vivo; details: foliar, 200 ppm in the formulation, wheat leaf segments cv. Kanzler, 7-9 days after application, vs untreated control, read-out: disease control
Method: Puccinia recondita f. so. tritici/Wheat/Leaf Disc Preventative (Brown Rust)
Wheat leaf segments cv. Kanzler are placed on agar in multiwell plates (24-well format) and sprayed with the formulated test compound diluted in water. The leaf disks are inoculated with a spore suspension of the fungus 1 day after application. The inoculated leaf segments are incubated at 19° C. and 75% rh under a light regime of 12 h light/12 h darkness in a climate cabinet and the activity of a compound is assessed as percent disease control compared to untreated when an appropriate level of disease damage appears in untreated check leaf segments (7-9 days after application).

[5] = system: Mycosphaerella graminicola (Septoria tritici); assay: Mycosphaerella graminicola (Septoria tritici) / liquid culture (Septoria blotch); type: cell-based; details: Zymoseptoria tritici; 200 ppm in the formulation; PDB broth, 24° C., photometric, 4 to 5 days after application; vs untreated control; read-out: disease control (inhibition of growth)
Method: Mycosphaerella graminicola (Septoria tritici)/Liquid Culture (Septoria Blotch) Conidia of the fungus from cryogenic storage are directly mixed into nutrient broth (PDB potato dextrose broth). After placing a (DMSO) solution of test compound into a microtiter plate (96-well format), the nutrient broth containing the fungal spores is added. The test plates are incubated at 24° C. and the inhibition of growth is determined photometrically 4 to 5 days after application.

[6] = system: Monographella nivalis (Microdochium nivale); assay: Monographella nivalis (Microdochium nivale) / liquid culture (foot rot cereals); type: cell-based; details: 200 ppm in the formulation, PDB broth, 24° C., photometric, 4-5 days after application, vs untreated control, read-out: disease control (inhibition of growth)
Method: Monographella nivalis (Microdochium nivale)/Liquid Culture (Foot Rot Cereals) Conidia of the fungus from cryogenic storage are directly mixed into nutrient broth (PDB potato dextrose broth). After placing a (DMSO) solution of test compound into a microtiter plate (96-well format), the nutrient broth containing the fungal spores is added. The test plates are incubated at 24° C. and the inhibition of growth is determined photometrically 4-5 days after application.

[7] = system: Phaeosphaeria nodorum (Setoria nodorum); assay: Phaeosphaeria nodorum (Septoria nodorum) / wheat / leaf disc preventative (glume blotch); type: in vivo; details: Parastagonospora nodorum, foliar, 200 ppm in the formulation, wheat leaf segments cv. Kanzler, 5-7 days after application, vs untreated control, read-out: disease control
Method: Phaeosphaeria nodorum (Setoria nodorum)/Wheat/Leaf Disc Preventative (Glume Blotch) Wheat leaf segments cv. Kanzler are placed on agar in a multiwell plate (24-well format) and sprayed with the formulated test compound diluted in water. The leaf disks are inoculated with a spore suspension of the fungus 2 days after application. The inoculated test leaf disks are incubated at 20° C. and 75% rh under a light regime of 12 h light/12 h darkness in a climate cabinet and the activity of a compound is assessed as percent disease control compared to untreated when an appropriate level of disease damage appears in untreated check leaf disks (5-7 days after application).

[8] = system: Magnaporthe grisea (Pyricularia oryzae); assay: whole plant or invertebrate; type: in vivo; details: foliar, read-out: disease control

COc1ccnc(C(=O)N[C@@H](C)C(=O)OC(C)C(C)n2ccc3c(Br)ccc(F)c32)c1O (stereo partly drawn) [I.ab.001, [2-(4-bromo-7-fluoro-indol-1-yl)-1-methyl-propyl] (2S)-2-[(3-hydroxy-4-methoxy-pyridine-2-carbonyl)amino]propanoate]
≥ 80%: inhibition at 200 ppm [1] | inhibition at 200 ppm [2] | inhibition at 200 ppm [3] | pest or weed control at 200 ppm [4] | inhibition at 200 ppm [5] | inhibition at 200 ppm [6] | pest or weed control at 200 ppm [7]

COc1ccnc(C(=O)N[C@@H](C)C(=O)OC(C)C(C)n2ccc3c(Br)ccc(F)c32)c1OC(C)=O (stereo partly drawn) [I.ab.041, [2-(4-bromo-7-fluoro-indol-1-yl)-1-methyl-propyl] (2S)-2-[(3-acetoxy-4-methoxy-pyridine-2-carbonyl)amino]propanoate]
≥ 80%: pest or weed control at 200 ppm [8] | inhibition at 200 ppm [1] | inhibition at 200 ppm [3] | pest or weed control at 200 ppm [4] | inhibition at 200 ppm [5] | pest or weed control at 200 ppm [7]

COc1ccnc(C(=O)N[C@@H](C)C(=O)OC(C)C(C)c2ncc(Cl)cc2Cl)c1O (stereo partly drawn) [I.an.001, [2-(3,5-dichloro-2-pyridyl)-1-methyl-propyl] (2S)-2-[(3-hydroxy-4-methoxy-pyridine-2-carbonyl)amino] propanoate]
≥ 80%: pest or weed control at 200 ppm [8] | inhibition at 200 ppm [1] | inhibition at 200 ppm [3] | pest or weed control at 200 ppm [4] | inhibition at 200 ppm [5] | pest or weed control at 200 ppm [7]

COc1ccnc(C(=O)N[C@@H](C)C(=O)OC(C)C(C)c2ncc(Cl)cc2Cl)c1OCOC(=O)C(C)C (stereo partly drawn) [I.an.081, [2-[[(1S)-2-[2-(3,5-dichloro-2-pyridyl)-1-methyl-propoxy]-1-methyl-2-oxo-ethyl]carbamoyl]-4-methoxy-3-pyridyl]oxymethyl 2-methylpropanoate]
≥ 80%: pest or weed control at 200 ppm [8] | inhibition at 200 ppm [3] | pest or weed control at 200 ppm [4] | inhibition at 200 ppm [5] | inhibition at 200 ppm [6] | pest or weed control at 200 ppm [7]

COc1ccnc(C(=O)N[C@@H](C)C(=O)OC(C)C(C)c2ccc(Cl)s2)c1O (stereo partly drawn) [I.ar.001, [2-(5-chloro-2-thienyl)-1-methyl-propyl] (2S)-2-[(3-hydroxy-4-methoxy-pyridine-2-carbonyl)amino]propanoate]
≥ 80%: pest or weed control at 200 ppm [8] | inhibition at 200 ppm [1] | inhibition at 200 ppm [3] | pest or weed control at 200 ppm [4] | inhibition at 200 ppm [5] | inhibition at 200 ppm [6]

COc1ccnc(C(=O)N[C@@H](C)C(=O)OC(C)C(C)n2ccc3cccc(Br)c32)c1O (stereo partly drawn) [I.ba.001, [2-(7-bromoindol-1-yl)-1-methyl-propyl] (2S)-2-[(3-hydroxy-4-methoxy-pyridine-2-carbonyl)amino]propanoate]
≥ 80%: pest or weed control at 200 ppm [8] | inhibition at 200 ppm [1] | inhibition at 200 ppm [3] | pest or weed control at 200 ppm [4] | inhibition at 200 ppm [5] | inhibition at 200 ppm [6] | pest or weed control at 200 ppm [7]

COc1ccnc(C(=O)N[C@@H](C)C(=O)OC(C)C(C)n2ccc3c(Cl)ccc(Cl)c32)c1O (stereo partly drawn) [I.bb.001, [2-(4,7-dichloroindol-1-yl)-1-methyl-propyl] (2S)-2-[(3-hydroxy-4-methoxy-pyridine-2-carbonyl)amino] propanoate]
≥ 80%: pest or weed control at 200 ppm [8] | inhibition at 200 ppm [1] | inhibition at 200 ppm [3] | pest or weed control at 200 ppm [4] | inhibition at 200 ppm [5] | inhibition at 200 ppm [6] | pest or weed control at 200 ppm [7]

COc1ccnc(C(=O)N[C@@H](C)C(=O)OC(C)C(C)n2ccc3cc(Br)ccc32)c1O (stereo partly drawn) [I.bc.001, [2-(5-bromoindol-1-yl)-1-methyl-propyl] (2S)-2-[(3-hydroxy-4-methoxy-pyridine-2-carbonyl)amino]propanoate]
≥ 80%: pest or weed control at 200 ppm [8] | inhibition at 200 ppm [1] | inhibition at 200 ppm [3] | pest or weed control at 200 ppm [4] | inhibition at 200 ppm [5] | inhibition at 200 ppm [6]

COc1ccnc(C(=O)N[C@@H](C)C(=O)OC(C)C(C)n2ccc3c(F)ccc(Br)c32)c1O (stereo partly drawn) [I.bd.001, [2-(7-bromo-4-fluoro-indol-1-yl)-1-methyl-propyl] (2S)-2-[(3-hydroxy-4-methoxy-pyridine-2-carbonyl)amino]propanoate]
≥ 80%: pest or weed control at 200 ppm [8] | inhibition at 200 ppm [1] | inhibition at 200 ppm [3] | pest or weed control at 200 ppm [4] | inhibition at 200 ppm [5] | inhibition at 200 ppm [6] | pest or weed control at 200 ppm [7]

COc1ccnc(C(=O)N[C@@H](C)C(=O)OC(C)C(C)n2ccc3c(F)ccc(Br)c32)c1OC(C)=O (stereo partly drawn) [I.bd.041, [2-(7-bromo-4-fluoro-indol-1-yl)-1-methyl-propyl] (2S)-2-[(3-acetoxy-4-methoxy-pyridine-2-carbonyl)amino]propanoate]
≥ 80%: pest or weed control at 200 ppm [8] | inhibition at 200 ppm [1] | inhibition at 200 ppm [3] | pest or weed control at 200 ppm [4] | inhibition at 200 ppm [5] | inhibition at 200 ppm [6] | pest or weed control at 200 ppm [7]

COc1ccnc(C(=O)N[C@@H](C)C(=O)OC(C)C(C)c2nc3ccccc3s2)c1O (stereo partly drawn) [I.e.001, [2-(1,3-benzothiazol-2-yl)-1-methyl-propyl] (2S)-2-[(3-hydroxy-4-methoxy-pyridine-2-carbonyl)amino] propanoate]
≥ 80%: pest or weed control at 200 ppm [8] | inhibition at 200 ppm [1] | inhibition at 200 ppm [2] | inhibition at 200 ppm [3] | pest or weed control at 200 ppm [4] | inhibition at 200 ppm [5] | inhibition at 200 ppm [6]

COc1ccnc(C(=O)N[C@@H](C)C(=O)OC(C)C(C)n2ccc3ccc(C(F)(F)F)cc32)c1O (stereo partly drawn) [I.z.001, [1-methyl-2-[6-(trifluoromethyl)indol-1-yl]propyl] (2S)-2-[(3-hydroxy-4-methoxy-pyridine-2-carbonyl)amino]propanoate]
≥ 80%: inhibition at 200 ppm [1] | inhibition at 200 ppm [2] | inhibition at 200 ppm [3] | pest or weed control at 200 ppm [4] | inhibition at 200 ppm [5] | inhibition at 200 ppm [6] | pest or weed control at 200 ppm [7]
